By IC50 is commonly meant the point on the concentration scale where inhibition reaches its midpoint.

A value given as a limit tells only on which side of the number the result lay.

The text below walks through data of patent US20170066759A1, “AROMATIC 5-MEMBERED HETEROCYCLIC DERIVATIVE HAVING TRPV4-INHIBITING ACTIVITY” (Shionogi & Co., Ltd., priority 2012, published 2017).

T1 sequence (Q9HBA0 whole entry): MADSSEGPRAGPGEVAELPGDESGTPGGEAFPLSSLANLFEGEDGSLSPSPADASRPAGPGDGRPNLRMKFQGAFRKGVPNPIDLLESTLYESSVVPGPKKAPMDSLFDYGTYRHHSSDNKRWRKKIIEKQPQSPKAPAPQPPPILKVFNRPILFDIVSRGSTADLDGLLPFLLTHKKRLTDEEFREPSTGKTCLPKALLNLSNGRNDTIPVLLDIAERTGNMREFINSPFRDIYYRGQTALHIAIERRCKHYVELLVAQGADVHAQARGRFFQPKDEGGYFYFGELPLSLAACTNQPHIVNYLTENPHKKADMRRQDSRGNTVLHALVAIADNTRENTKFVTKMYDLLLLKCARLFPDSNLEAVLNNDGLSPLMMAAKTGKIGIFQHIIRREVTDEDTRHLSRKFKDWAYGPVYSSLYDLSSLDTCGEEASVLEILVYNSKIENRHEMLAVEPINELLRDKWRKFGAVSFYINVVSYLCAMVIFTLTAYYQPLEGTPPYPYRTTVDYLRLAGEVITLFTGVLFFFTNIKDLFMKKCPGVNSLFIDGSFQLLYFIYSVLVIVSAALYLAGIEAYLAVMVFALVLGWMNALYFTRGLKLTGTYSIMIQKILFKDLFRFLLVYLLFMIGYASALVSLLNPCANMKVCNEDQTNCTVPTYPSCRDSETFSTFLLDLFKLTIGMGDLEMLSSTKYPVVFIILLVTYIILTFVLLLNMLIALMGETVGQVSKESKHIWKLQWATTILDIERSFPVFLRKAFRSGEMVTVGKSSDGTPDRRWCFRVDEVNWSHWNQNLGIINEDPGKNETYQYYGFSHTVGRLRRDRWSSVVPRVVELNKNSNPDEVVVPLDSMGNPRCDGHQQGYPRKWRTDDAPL

The assay addresses T1, human TRPV4 (hTRPV4/CHO cells) (Homo sapiens, UniProt Q9HBA0).
T1 construct: expressed in transfected cells; host or cells: CHO-K1
Description: Test Example 1: TRPV4 inhibitory activity (IC50 value), 4α-PDD stimulation, Fluo4 calcium fluorescence (FLIPR TETRA). The conditions noted are these: Test Example 1, 4α-PDD stimulation, read-out: Test 1 IC50. It counts as cell-based.
In the case of `Cc1nc(CO)sc1-c1csc(NC(=O)[C@H]2C[C@@H](OCc3ccc(Cl)cc3)C2)n1` [Compound I-331], the 50% inhibitory concentration (IC50) is < 100 nM.

On to `Cc1nc(C(=N)N)sc1-c1csc(NC(=O)Cc2ccc(S(=O)(=O)C(F)(F)F)cc2)n1` [Compound I-404], for which the concentration for half-maximal inhibition (IC50) fell in the range of 100 to 1000 nM.

With `Cc1nc(C)c(-c2csc(NC(=O)Cc3cccc(C(=O)Nc4ccccc4)c3)n2)s1` [Compound I-469], the concentration for half-maximal inhibition (IC50) is < 100 nM.

Regarding `NC(=O)OCc1nc(CO)sc1-c1csc(NC(=O)Cc2ccc(S(=O)(=O)C(F)(F)F)cc2)n1` [Compound I-373], the IC50 was < 100 nM.

Take `NC(=O)OCCc1nc(CO)sc1-c1csc(NC(=O)Cc2ccc(S(=O)(=O)C(F)(F)F)cc2)n1` [Compound I-370]: the IC50 was < 100 nM.

`O=C(Nc1nc(-c2sc(CO)nc2CO)cs1)[C@H]1C[C@@H](OCc2ccc(C(F)(F)F)cc2)C1` [Compound I-550]: the IC50 is 100 to 1000 nM.

In the case of `Cc1nc(C)c(-c2csc(NC(=O)[C@@H]3C[C@@H](c4ccccc4)CN3C)n2)s1` [Compound I-217], the concentration for half-maximal inhibition (IC50) lay in the range of 1000 to 8000 nM.

For `Cc1nc(C(C)O)oc1-c1csc(NC(=O)Cc2ccc(S(=O)(=O)C(F)(F)F)cc2)n1` (racemic) [Compound I-387], the IC50 is 100 to 1000 nM.

Take `O=C(Nc1nc(-c2sc(CO)nc2CO)cs1)C1CCC(C(F)(F)F)CC1` (stereo not drawn) [Compound I-253]: the IC50 was in the range of 100 to 1000 nM.

For the compound `Cc1nc(C)c(-c2csc(NC(=O)Cc3ccc(NC(=O)c4ccccc4)cc3)n2)s1` [Compound I-413], the IC50 is 100 to 1000 nM.

Regarding `CCOC(=O)c1nc(C)sc1-c1csc(NC(=O)Cc2c(F)cccc2F)n1` [Compound I-539], the IC50 was < 100 nM.

For the compound `CN(Cc1nc(CO)sc1-c1csc(NC(=O)Cc2ccc(S(=O)(=O)C(F)(F)F)cc2)n1)C(=O)CO` [Compound I-436], the half-maximal inhibitory concentration (IC50) is 100 to 1000 nM.

For `Cc1nc(C)c(-c2nc(NC(=O)Cc3c(F)cccc3F)sc2-c2cccnc2)s1` [Compound I-63], the concentration for half-maximal inhibition (IC50) fell in the range of 1000 to 8000 nM.

Take `O=C(Cc1ccc(S(=O)(=O)C(F)(F)F)cc1)Nc1nc(-c2sc(CO)nc2CN2CCCC2=O)cs1` [Compound I-463]: the half-maximal inhibitory concentration (IC50) was 100 to 1000 nM.

As for `Cc1nc(C(N)=O)sc1-c1csc(NC(=O)Cn2cc(Cl)cn2)n1` [Compound I-127], the IC50 was in the range of 100 to 1000 nM.

For the compound `Cc1nc(CO)sc1-c1csc(NC(=O)C2CN(C(=O)OC(C)(C)C(F)(F)F)C2)n1` [Compound I-329], the IC50 was < 100 nM.

On to `Cc1nc(C)c(-c2csc(NCC3Cc4cc(Cl)ccc4O3)n2)s1` (racemic) [II-48], for which the IC50 was < 100 nM.

Turning to `Cc1nc(C)c(-c2csc(NC(=O)Cc3cccc(C(=O)N[C@@H](c4ccccc4)C(F)(F)F)c3)n2)s1` [Compound I-490], the 50% inhibitory concentration (IC50) was < 100 nM.

Consider `CC(=O)N1C[C@H](c2ccccc2)C[C@H]1C(=O)Nc1nc(-c2sc(C)nc2C)cs1` [Compound I-289], for which the IC50 was in the range of 100 to 1000 nM.

Take `Cc1nc(C)c(-c2csc(NC(=O)C3(CC(=O)OC(C)(C)C)CN(c4ccc(C(F)(F)F)cc4)C3)n2)s1` (racemic) [Compound I-519]: the IC50 was < 100 nM.

For `Cc1nc(C)c(-c2csc(NC(=O)Cn3cc(-c4ccc(S(C)(=O)=O)cc4)nn3)n2)s1` [Compound I-422], the IC50 was in the range of 100 to 1000 nM.

As to `Cc1nc(C)c(-c2csc(NC(=O)N3CC(F)C3)n2)s1` [Compound I-90], the half-inhibitory concentration (IC50) was 1000 to 8000 nM.

For the compound `Cc1nc(C)c(-c2csc(NC(=O)[C@@H]3C[C@@H](N4CCCCC4)CN3C(=O)OC(C)(C)C)n2)s1` [Compound I-275], the half-inhibitory concentration (IC50) was in the range of 1000 to 8000 nM.

Turning to `Cc1nc(C(C)O)sc1-c1csc(NC(=O)Cc2ccc(S(=O)(=O)C(F)(F)F)cc2)n1` (racemic) [Compound I-287], the IC50 is < 100 nM.

Turning to `Cc1nc(C)c(-c2csc(NC(=O)[C@@H]3C[C@@H](c4ccccc4)CN3)n2)s1` [Compound I-178], the IC50 lay within 100 to 1000 nM.

Regarding `Cc1nc(C)c(-c2csc(NC(Cc3ccc(Cl)cc3)C(=O)NCc3ccccc3)n2)s1` (racemic) [II-43], the IC50 lay within 1000 to 8000 nM.

`Cc1nc(C(=O)N(C)C)sc1-c1csc(NC(=O)Cc2c(F)cccc2F)n1` [Compound I-114]: the IC50 fell in the range of 1000 to 8000 nM.

For `Cc1nc(C)c(-c2csc(N(Cc3ccc(C(F)(F)F)cc3)C(=O)C3CN(O)C3)n2)s1` [Compound I-374], the half-maximal inhibitory concentration (IC50) lay within 1000 to 8000 nM.

Consider `Cc1nc(C)c(-c2csc(NC(=O)Cn3cc(-c4ccccn4)nn3)n2)s1` [Compound I-426], for which the concentration for half-maximal inhibition (IC50) fell in the range of 1000 to 8000 nM.

As for `O=C(Nc1nc(-c2sc(CO)nc2CO)cs1)C1CN(c2ccc(F)cc2)C1` [Compound I-372], the half-maximal inhibitory concentration (IC50) fell in the range of 100 to 1000 nM.

Turning to `CC(C)c1ccc(N2CC(C(=O)Nc3nc(-c4sc(CO)nc4CO)cs3)C2)cc1` [Compound I-341], the half-inhibitory concentration (IC50) was < 100 nM.

Turning to `Cc1nc(C)c(-c2csc(NC(=O)CN3CCC(c4ccccc4)C3)n2)s1` (stereo not drawn) [Compound I-155], the IC50 lay within 100 to 1000 nM.

Turning to `Cc1nc(C)c(-c2nc(NC(=O)Cc3c(F)cccc3F)sc2I)s1` [Compound I-65], the IC50 lay within 1000 to 8000 nM.

In the case of `Cc1nc(C)c(-c2csc(NC(=O)C3CN(C(=O)c4ccccc4)C3)n2)s1` [Compound I-256], the IC50 was in the range of 1000 to 8000 nM.

`Cc1nc(C)c(-c2csc(NC(=O)[C@@H]3CCCN3C(=O)OC(C)(C)C)n2)s1` [Compound I-249]: the IC50 is 100 to 1000 nM.

For `Cc1nc(C)c(-c2csc(NC(=O)C3CN(C(=O)c4ccc(C(F)(F)F)cc4)C3)n2)s1` [Compound I-257], the IC50 lay within 100 to 1000 nM.

Turning to `Cc1nc(C)c(-c2csc(NC(=O)Cc3ccc(C(F)(F)F)cc3)n2)o1` [Compound I-139], the IC50 was in the range of 100 to 1000 nM.

In the case of `O=C(Nc1nc(-c2sc(CO)nc2CCCN2CCOCC2)cs1)C1CN(c2ccc(C(F)(F)F)cc2)C1` [Compound I-352], the IC50 was < 100 nM.

Regarding `Cc1nc(C(=O)NCCN(C)C)sc1-c1csc(NC(=O)Cc2c(F)cccc2F)n1` [Compound I-126], the half-maximal inhibitory concentration (IC50) lay within 1000 to 8000 nM.

As for `CCN(CC)Cc1nc(CO)sc1-c1csc(NC(=O)Cc2ccc(S(=O)(=O)C(F)(F)F)cc2)n1` [Compound I-236], the half-maximal inhibitory concentration (IC50) lay within 100 to 1000 nM.

Turning to `CCOC(=O)C(C)(C)N1CC(C(=O)Nc2nc(-c3sc(C)nc3C)cs2)C1` [Compound I-279], the IC50 lay in the range of 1000 to 8000 nM.

As for `Cc1nc(CO)sc1-c1csc(NC(=O)[C@H]2C[C@@H](OCc3ccc(C(F)(F)F)cc3)C2)n1` [Compound I-335], the IC50 is < 100 nM.

Take `Cc1nc(C)c(-c2csc(C(=O)NCc3cccc(F)c3)n2)s1` [II-2]: the half-maximal inhibitory concentration (IC50) was in the range of 1000 to 8000 nM.

Consider `Cc1nc(CO)sc1-c1csc(NC(=O)C2CCN(c3ccc(Cl)cc3)C2)n1` (stereo not drawn) [Compound I-204], for which the IC50 was < 100 nM.

As to `Cc1nc(C)c(-c2nc(NC(=O)Cc3c(F)cccc3F)sc2C2=CCCCC2)s1` [Compound I-537], the half-maximal inhibitory concentration (IC50) was 1000 to 8000 nM.

Consider `Cc1nc(C(F)F)sc1-c1csc(NC(=O)Cn2cc(Cl)cn2)n1` [Compound I-110], for which the IC50 fell in the range of 100 to 1000 nM.

For the compound `Cc1nc(C)c(-c2csc(NC(=O)Cn3cc(C4CC4)nn3)n2)s1` [Compound I-430], the IC50 is 100 to 1000 nM.

As to `O=C(Nc1nc(-c2sc(CO)nc2CO)cs1)C1CN(c2ccc(C(F)(F)F)cn2)C1` [Compound I-303], the half-inhibitory concentration (IC50) was in the range of 100 to 1000 nM.

As to `Cc1nc(C)c(-c2csc(NC(=O)CN3CCCC3c3ccccc3)n2)s1` (stereo not drawn) [Compound I-154], the IC50 was 100 to 1000 nM.

On to `Cc1nc(C)c(-c2csc(NC(=O)Cn3cc(-c4ccc(N(C)C)cc4)nn3)n2)s1` [Compound I-427], for which the IC50 lay in the range of 100 to 1000 nM.

For `Cc1nc(C)c(-c2csc(NC(=O)C3CCCN(S(=O)(=O)c4ccccc4)C3)n2)s1` (stereo not drawn) [Compound I-194], the concentration for half-maximal inhibition (IC50) was 1000 to 8000 nM.

`Cc1nc(C)c(-c2csc(NC3CCCCC3)n2)s1` [II-37]: the 50% inhibitory concentration (IC50) is < 100 nM.

On to `Cc1nc(C)c(-c2csc(NC(=O)OC3CN(c4ncc(C(F)(F)F)cn4)C3)n2)s1` [Compound I-386], for which the half-inhibitory concentration (IC50) fell in the range of 1000 to 8000 nM.

In the case of `Cc1nc(C)c(-c2csc(NC(=O)Cc3cccc(S(C)(=O)=O)c3)n2)s1` [Compound I-79], the half-inhibitory concentration (IC50) fell in the range of 100 to 1000 nM.

Take `Cc1nc(C(=O)NC#N)sc1-c1csc(NC(=O)Cc2c(F)cccc2F)n1` [Compound I-108]: the IC50 lay within 1000 to 8000 nM.

Take `Cc1nc(CO)sc1-c1csc(NC(=O)C2CN(S(=O)(=O)c3ccccc3C(F)(F)F)C2)n1` [Compound I-305]: the half-inhibitory concentration (IC50) is 100 to 1000 nM.

Regarding `CC(=O)c1nc(C)sc1-c1csc(NC(=O)Cc2c(F)cccc2F)n1` [Compound I-129], the 50% inhibitory concentration (IC50) lay in the range of 100 to 1000 nM.

For the compound `Cc1nc(C)c(-c2csc(Nc3ccncc3)n2)s1` [II-41], the IC50 lay in the range of 1000 to 8000 nM.

Consider `Cc1nc(C)c(-c2csc(NC(=O)Cc3cccc(NS(=O)(=O)c4ccccc4)c3)n2)s1` [Compound I-418], for which the half-maximal inhibitory concentration (IC50) was < 100 nM.

Consider `Cc1nc(CO)sc1-c1csc(NC(=O)C2CN(c3ccc(C(F)(F)F)nc3)C2)n1` [Compound I-309], for which the IC50 is < 100 nM.

In the case of `CCOC(=O)c1nc(C)c(-c2csc(NC(=O)C3Oc4cc(Cl)c(Cl)cc4O3)n2)s1` [Compound I-270], the 50% inhibitory concentration (IC50) is 100 to 1000 nM.

Turning to `O=C(Cc1ccc(S(=O)(=O)C(F)(F)F)cc1)Nc1nc(-c2sc(CO)nc2CCCO)cs1` [Compound I-360], the IC50 was < 100 nM.

`Cc1nc(CC(N)=O)sc1-c1csc(NC(=O)Cc2ccc(S(=O)(=O)C(F)(F)F)cc2)n1` [Compound I-411]: the half-maximal inhibitory concentration (IC50) lay in the range of 100 to 1000 nM.

As for `Cc1nc(C)c(-c2csc(NC(=O)C3Cc4cc(S(=O)(=O)N(C)C)c(Cl)c(Cl)c4O3)n2)s1` (stereo not drawn) [Compound I-196], the IC50 is < 100 nM.

With `Cc1nc(C)c(-c2csc(NC(=O)CC3CN(c4ncc(C(F)(F)F)cn4)C3)n2)s1` [Compound I-401], the IC50 lay within 100 to 1000 nM.

In the case of `COC(=O)c1cccc(CC(=O)Nc2nc(-c3sc(C)nc3C)cs2)n1` [Compound I-509], the 50% inhibitory concentration (IC50) was in the range of 100 to 1000 nM.

Consider `Cc1nc(CO)sc1-c1csc(NC(=O)[C@H]2C[C@@H](OCC(F)(F)F)C2)n1` [Compound I-356], for which the IC50 is 100 to 1000 nM.

As for `Cc1nc(C)c(-c2csc(NC(=O)Cc3ccc(S(=O)(=O)N(C)c4ccccc4Cl)cc3)n2)s1` [Compound I-162], the 50% inhibitory concentration (IC50) is < 100 nM.

In the case of `COc1ccc(N(C)S(=O)(=O)c2ccc(CC(=O)Nc3nc(-c4sc(C)nc4C)cs3)cc2)cc1` [Compound I-158], the 50% inhibitory concentration (IC50) is < 100 nM.
